# Test system: HBV
# Assay: HBV infection in HepG2-NTCP cells (HBeAg AlphaLISA in supernatants)
# Assay type: cell-based
# Conditions: Hepatitis B virus, 192 h; HBV infection of HepG2-NTCP cells; HBeAg in supernatants at day 8 post infection; read-out: Cellular EC50
# Summary of the method: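 Readout was day-8 supernatant HBeAg by AlphaLISA, with EC50 set against DMSO controls and binned A<0.1 μM, B 0.1-1 μM, C>1 μM. Compounds were added 2 h before HBV (2000 GE/cell, 4% PEG, 0.5% DMSO) to HepG2-NTCP A3 cells; from day 1 medium held 2.5% DMSO.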
row,SMILES,EC50 [nM]
1,Cc1cnc(COc2cc3c(cc2-c2ccc(F)c(C(=O)O)c2)S(=O)(=O)N(C)[C@H](C2CCCCC2)CN3c2ccccc2)s1 [Example 342],< 100
2,CN1[C@H](C2CCCCC2)CN(c2ccccc2)c2cc(OCc3cnco3)c(-c3ccc(F)c(C(=O)O)c3)cc2S1(=O)=O [Example 343],100 to 1000
3,CN1[C@H](C2CCCCC2)CN(c2ccccc2)c2cc(OCc3ncco3)c(-c3ccc(F)c(C(=O)O)c3)cc2S1(=O)=O [Example 344],< 100
4,CN1[C@H](C2CCCCC2)CN(c2ccccc2)c2cc(OCCc3ccco3)c(-c3ccc(F)c(C(=O)O)c3)cc2S1(=O)=O [Example 345],< 100
5,CN1[C@H](C2CCCCC2)CN(c2ccccc2)c2cc(OCCc3ccsc3)c(-c3ccc(F)c(C(=O)O)c3)cc2S1(=O)=O [Example 346],100 to 1000
6,CN1[C@H](C2CCCCC2)CN(c2ccccc2)c2cc(OCCCc3cscn3)c(-c3ccc(F)c(C(=O)O)c3)cc2S1(=O)=O [Example 347],< 100
7,CCOc1cc2c(cc1-c1ccc(F)c(C(=O)O)c1)S(=O)(=O)N(C)[C@H](C1CCCCC1)CN2c1ccccc1 [Example 349],< 100
8,CCCCOc1cc2c(cc1-c1ccc(F)c(C(=O)O)c1)S(=O)(=O)N(C)[C@H](C1CCCCC1)CN2c1ccccc1 [Example 350],< 100
9,CCCCCOc1cc2c(cc1-c1ccc(F)c(C(=O)O)c1)S(=O)(=O)N(C)[C@H](C1CCCCC1)CN2c1ccccc1 [Example 351],< 100
10,CCCCCCOc1cc2c(cc1-c1ccc(F)c(C(=O)O)c1)S(=O)(=O)N(C)[C@H](C1CCCCC1)CN2c1ccccc1 [Example 352],< 100
11,CCCCCCCCCCOc1cc2c(cc1-c1ccc(F)c(C(=O)O)c1)S(=O)(=O)N(C)[C@H](C1CCCCC1)CN2c1ccccc1 [Example 354],100 to 1000
12,CCCCC[C@@H](C)Oc1cc2c(cc1-c1ccc(F)c(C(=O)O)c1)S(=O)(=O)N(C)[C@H](C1CCCCC1)CN2c1ccccc1 [Example 355],< 100
13,CCCCC[C@H](C)Oc1cc2c(cc1-c1ccc(F)c(C(=O)O)c1)S(=O)(=O)N(C)[C@H](C1CCCCC1)CN2c1ccccc1 [Example 356],< 100
14,CC(C)Oc1cc2c(cc1-c1ccc(F)c(C(=O)O)c1)S(=O)(=O)N(C)[C@H](C1CCCCC1)CN2c1ccccc1 [Example 357],< 100
15,CC(C)COc1cc2c(cc1-c1ccc(F)c(C(=O)O)c1)S(=O)(=O)N(C)[C@H](C1CCCCC1)CN2c1ccccc1 [Example 358],< 100
16,CC(C)CCOc1cc2c(cc1-c1ccc(F)c(C(=O)O)c1)S(=O)(=O)N(C)[C@H](C1CCCCC1)CN2c1ccccc1 [Example 359],< 100
17,CC(C)CCCOc1cc2c(cc1-c1ccc(F)c(C(=O)O)c1)S(=O)(=O)N(C)[C@H](C1CCCCC1)CN2c1ccccc1 [Example 360],< 100
18,CC(C)CCCCOc1cc2c(cc1-c1ccc(F)c(C(=O)O)c1)S(=O)(=O)N(C)[C@H](C1CCCCC1)CN2c1ccccc1 [Example 361],< 100
19,CC(C)CCCCCOc1cc2c(cc1-c1ccc(F)c(C(=O)O)c1)S(=O)(=O)N(C)[C@H](C1CCCCC1)CN2c1ccccc1 [Example 362],< 100
20,CN1[C@H](C2CCCCC2)CN(c2ccccc2)c2cc(OCC3CC(F)(F)C3)c(-c3ccc(F)c(C(=O)O)c3)cc2S1(=O)=O [Example 363],< 100
21,CN1[C@H](C2CCCCC2)CN(c2ccccc2)c2cc(OCC3CCC3)c(-c3ccc(F)c(C(=O)O)c3)cc2S1(=O)=O [Example 364],< 100
22,CN1[C@H](C2CCCCC2)CN(c2ccccc2)c2cc(OCCCCO)c(-c3ccc(F)c(C(=O)O)c3)cc2S1(=O)=O [Example 365],< 100
23,CN1[C@H](C2CCCCC2)CN(c2ccccc2)c2cc(OCC3CCN(C(=O)OC(C)(C)C)CC3)c(-c3ccc(F)c(C(=O)O)c3)cc2S1(=O)=O [Example 366],< 100
24,CN1[C@H](C2CCCCC2)CN(c2ccccc2)c2cc(OCCC3CCN(C(=O)OC(C)(C)C)CC3)c(-c3ccc(F)c(C(=O)O)c3)cc2S1(=O)=O [Example 367],< 100
25,CN1[C@H](C2CCCCC2)CN(c2ccccc2)c2cc(OCCCC3CCN(C(=O)OC(C)(C)C)CC3)c(-c3ccc(F)c(C(=O)O)c3)cc2S1(=O)=O [Example 368],< 100

row,SMILES,EC50 [nM]
1,CN1[C@H](C2CCCCC2)CN(c2ccccc2)c2cc(OC[C@@H]3CCCN(C(=O)OC(C)(C)C)C3)c(-c3ccc(F)c(C(=O)O)c3)cc2S1(=O)=O [Example 369],100 to 1000
2,CN1[C@H](C2CCCCC2)CN(c2ccccc2)c2cc(OCC34CC(CO3)C4)c(-c3ccc(F)c(C(=O)O)c3)cc2S1(=O)=O [Example 371],< 100
3,CN1[C@H](C2CCCCC2)CN(c2ccccc2)c2cc(OC3CCCC3)c(-c3ccc(F)c(C(=O)O)c3)cc2S1(=O)=O [Example 373],< 100
4,CN1[C@H](C2CCCCC2)CN(c2ccccc2)c2cc(OC3CCCCC3)c(-c3ccc(F)c(C(=O)O)c3)cc2S1(=O)=O [Example 374],< 100
5,CN1[C@H](C2CCCCC2)CN(c2ccccc2)c2cc(OC3CC(C)(C)C3)c(-c3ccc(F)c(C(=O)O)c3)cc2S1(=O)=O [Example 375],< 100
6,CN1[C@H](C2CCCCC2)CN(c2ccccc2)c2cc(OC3CC4(CCC4)C3)c(-c3ccc(F)c(C(=O)O)c3)cc2S1(=O)=O [Example 377],< 100
7,CO[C@H]1C[C@H](Oc2cc3c(cc2-c2ccc(F)c(C(=O)O)c2)S(=O)(=O)N(C)[C@H](C2CCCCC2)CN3c2ccccc2)C1 [Example 378],100 to 1000
8,CO[C@H]1C[C@@H](Oc2cc3c(cc2-c2ccc(F)c(C(=O)O)c2)S(=O)(=O)N(C)[C@H](C2CCCCC2)CN3c2ccccc2)C1 [Example 379],100 to 1000
9,CN1[C@H](C2CCCCC2)CN(c2ccccc2)c2cc(O[C@H]3C[C@@H](F)C3)c(-c3ccc(F)c(C(=O)O)c3)cc2S1(=O)=O [Example 380],< 100
10,CN1[C@H](C2CCCCC2)CN(c2ccccc2)c2cc(O[C@H]3C[C@H](F)C3)c(-c3ccc(F)c(C(=O)O)c3)cc2S1(=O)=O [Example 381],< 100
11,CN1[C@H](C2CCCCC2)CN(c2ccccc2)c2cc(O[C@H]3C[C@@H](C#N)C3)c(-c3ccc(F)c(C(=O)O)c3)cc2S1(=O)=O [Example 382],< 100
12,CN1[C@H](C2CCCCC2)CN(c2ccccc2)c2cc(OC3CC4(CCOCC4)C3)c(-c3ccc(F)c(C(=O)O)c3)cc2S1(=O)=O [Example 383],100 to 1000
13,CN1[C@H](C2CCCCC2)CN(c2ccccc2)c2cc(O[C@H]3C[C@H](C#N)C3)c(-c3ccc(F)c(C(=O)O)c3)cc2S1(=O)=O [Example 384],100 to 1000
14,CN1[C@H](C2CCCCC2)CN(c2ccccc2)c2cc(OC3CC4(CC4)C3)c(-c3ccc(F)c(C(=O)O)c3)cc2S1(=O)=O [Example 385],< 100
15,CN1[C@H](C2CCCCC2)CN(c2ccccc2)c2cc(OC3CCC(C)(C)CC3)c(-c3ccc(F)c(C(=O)O)c3)cc2S1(=O)=O [Example 386],100 to 1000
16,"CN1[C@H](C2CCCCC2)CN(c2ccccc2)c2cc(OCc3cn(C)cn3)c(-c3ccc(F)c(C(=O)O)c3)cc2S1(=O)=O [Example 389, (R)-5-(3-cyclohexyl-2-methyl-7-((1-methyl-1H-imidazol-4-yl)methoxy)-1,1-dioxido-5-phenyl-2,3,4,5-tetrahydrobenzo[f][1,2,5]thiadiazepin-8-yl)-2-fluorobenzoic acid]",100 to 1000
17,CN1[C@H](C2CCCCC2)CN(c2ccccc2)c2cc(OCc3cncn3C)c(-c3ccc(F)c(C(=O)O)c3)cc2S1(=O)=O [Example 390],> 1000
18,CN1[C@H](C2CCCCC2)CN(c2ccccc2)c2cc(OCCc3cn(C)cn3)c(-c3ccc(F)c(C(=O)O)c3)cc2S1(=O)=O [Example 392],> 1000
19,"CN1[C@H](C2CCCCC2)CN(c2ccccc2)c2cc(OC3CCN(C(=O)OC(C)(C)C)CC3)c(-c3ccc(F)c(C(=O)O)c3)cc2S1(=O)=O [Example 393, (R)-5-(7-((1-(tert-butoxycarbonyl)piperidin-4-yl)oxy)-3-cyclohexyl-2-methyl-1,1-dioxido-5-phenyl-2,3,4,5-tetrahydrobenzo[f][1,2,5]thiadiazepin-8-yl)-2-fluorobenzoic acid]",< 100
20,"CN1[C@H](C2CCCCC2)CN(c2ccccc2)c2cc(OC3CCNCC3)c(-c3ccc(F)c(C(=O)O)c3)cc2S1(=O)=O [Example 394, (R)-5-(3-cyclohexyl-2-methyl-1,1-dioxido-5-phenyl-7-(piperidin-4-yloxy)-2,3,4,5-tetrahydrobenzo[f][1,2,5]thiadiazepin-8-yl)-2-fluorobenzoic acid]",> 1000
21,"CC(=O)N1CCC(Oc2cc3c(cc2-c2ccc(F)c(C(=O)O)c2)S(=O)(=O)N(C)[C@H](C2CCCCC2)CN3c2ccccc2)CC1 [Example 395, (R)-5-(7-((1-acetylpiperidin-4-yl)oxy)-3-cyclohexyl-2-methyl-1,1-dioxido-5-phenyl-2,3,4,5-tetrahydrobenzo[f][1,2,5]thiadiazepin-8-yl)-2-fluorobenzoic acid]",100 to 1000
22,CN1[C@H](C2CCCCC2)CN(c2ccccc2)c2cc(O[C@@H]3CCN(C(=O)OC(C)(C)C)C3)c(-c3ccc(F)c(C(=O)O)c3)cc2S1(=O)=O [Example 397],< 100
23,CN1[C@H](C2CCCCC2)CN(c2ccccc2)c2cc(OC3CN(C(=O)OC(C)(C)C)C3)c(-c3ccc(F)c(C(=O)O)c3)cc2S1(=O)=O [Example 398],< 100
24,CN1[C@H](C2CCCCC2)CN(c2ccccc2)c2cc(O[C@@H]3CCCNC3)c(-c3ccc(F)c(C(=O)O)c3)cc2S1(=O)=O [Example 399],> 1000
25,"CC(C)NC(=O)N1CCC(Oc2cc3c(cc2-c2ccc(F)c(C(=O)O)c2)S(=O)(=O)N(C)[C@H](C2CCCCC2)CN3c2ccccc2)CC1 [Example 400, (R)-5-(3-cyclohexyl-7-((1-(isopropylcarbamoyl)piperidin-4-yl)oxy)-2-methyl-1,1-dioxido-5-phenyl-2,3,4,5-tetrahydrobenzo[f][1,2,5]thiadiazepin-8-yl)-2-fluorobenzoic acid]",100 to 1000

# Reference: US20240368096A1 (Enanta Pharmaceuticals, Inc., priority 2022, published 2024)
